Measured values: patent US20110263552A1, “MODULATION OF SIDE EFFECT PROFILE OF 5-ALPHA REDUCTASE INHIBITOR THERAPY” (SOV Therapeutics, priority 2009, published 2011)
Marks after values point to notes of the source that are not given here.

Legend:
Male Sprague-Dawley rats = test: Organ weights in rats after 14 days of dosing (Example 9); format: in vivo
Excerpt: The organ weights obtained from Bramson et al. are given in the right-hand column of the table for reference (Bramson, H. N., Journal of Pharmacology and Experimental Therapeutics, 1496-1502, (1997).)

[1] = Testosterone undecanoate (TU) solubility in various solubilizers
[2] = oral 200 mg twice daily, cited from earlier work
[3] = tested on: absorption of cholesterol; conditions: ingestion of 1 g; meal containing 500 mg of cholesterol; cited from earlier work
[4] = male Sprague-Dawley rats, 80 mg/kg/day TU, without or with 1 mg/kg/day D

Structure (SMILES): CCCCCCCCCCC(=O)O[C@H]1CC[C@H]2[C@@H]3CCC4=CC(=O)CC[C@]4(C)[C@H]3CC[C@]12C [TU, testosterone undecanoate]
- Body weight, Mean (Male Sprague-Dawley rats; [4]): 284 g
- Seminal vesicles weight, Mean (Male Sprague-Dawley rats; [4]): 0.902 grams
- Testicles weight, Mean (Male Sprague-Dawley rats; [4]): 3.374 grams
- Ventral prostate weight, Mean (Male Sprague-Dawley rats; [4]): 0.22 grams
- Difference in organ weight versus vehicle-only (Male Sprague-Dawley rats; rats, any organ measured): No significant differences in weight
- TU Solubility ([1]; vehicle Acconon CO-7, at 37 C.): 59 mg/g
- TU Solubility ([1]; vehicle Canola oil, at 37 C.): 167 mg/g
- TU Solubility ([1]; vehicle Capmul MCM, determined at 25° C.): >100* mg/g
- TU Solubility ([1]; vehicle Capmul PG-8, determined at 25° C.): >100* mg/g
- TU Solubility ([1]; vehicle Caprylic acid, at 37 C.): 595 mg/g
- TU Solubility ([1]; vehicle Castor oil, at 37 C.): 218 mg/g
- TU Solubility ([1]; vehicle Corn oil, at 37 C.): 243 mg/g
- TU Solubility ([1]; vehicle Cremophor RH40, determined at 25° C.): 88* mg/g
- TU Solubility ([1]; vehicle Crodamol EO (ethyl oleate), at 37 C.): 221 mg/g
- TU Solubility ([1]; vehicle Crodamol IPM (isopropyl myristate), at 37 C.): 295 mg/g
- TU Solubility ([1]; vehicle Crodamol IPP (isopropyl palmitate), at 37 C.): 215 mg/g
- TU Solubility ([1]; vehicle Ethyl linoleate, at 37 C.): 230 mg/g
- TU Solubility ([1]; vehicle Glyceryl monooleate or GMO (Peceol (Gattefosse)), at 37 C.): 323 mg/g
- TU Solubility ([1]; vehicle Glyceryl ricinoleate (Softigen 701), at 37 C.): 261 mg/g
- TU Solubility ([1]; vehicle Glyceryl trioleate (Capmul GTO), at 37 C.): 154 mg/g
- TU Solubility ([1]; vehicle Incromega E7010 (omega-3), at 37 C.): 247 mg/g
- TU Solubility ([1]; vehicle Incromega TG7010 SR (omega-3 high purity), at 37 C.): 225 mg/g
- TU Solubility ([1]; vehicle Labrafil M 2125 CS, at 37 C.): 257 mg/g
- TU Solubility ([1]; vehicle Labrasol, determined at 25° C.): 43* mg/g
- TU Solubility ([1]; vehicle Linoleic acid, at 37 C.): 391 mg/g
- TU Solubility ([1]; vehicle Linolenic acid, at 37 C.): 162 mg/g
- TU Solubility ([1]; vehicle Maisine 35-1, at 37 C.): 93 mg/g
- TU Solubility ([1]; vehicle Miglyol 812, determined at 25° C.): >100* mg/g
- TU Solubility ([1]; vehicle N-methyl pyrolidone, at 37 C.): >500 mg/g
- TU Solubility ([1]; vehicle Oleic acid, at 37 C.): 405 mg/g
- TU Solubility ([1]; vehicle Omega-3 ethyl esters w/antioxidant (AMRI), at 37 C.): 261 mg/g
- TU Solubility ([1]; vehicle Omega-3 ethyl esters w/o antioxidant (AMRI), at 37 C.): 360 mg/g
- TU Solubility ([1]; vehicle Polyglyceryl-3-diisostearate (Plurol diisosterique), at 37 C.): 173 mg/g
- TU Solubility ([1]; vehicle Polyglyceryl-3-dioleate (Plurol oleique CC497), at 37 C.): 193 mg/g
- TU Solubility ([1]; vehicle Polyglyceryl-6-dioleate (Caprol MPGO, Abitec), at 37 C.): 184 mg/g
- TU Solubility ([1]; vehicle Polysorbate 80 (Tween 80), determined at 25° C.): 39* mg/g
- TU Solubility ([1]; vehicle Polysorbate 85, at 37 C.): 125 mg/g
- TU Solubility ([1]; vehicle Propylene glycol monocaprylate (Capryol 90, Gattefosse), at 37 C.): 486 mg/g
- TU Solubility ([1]; vehicle Propylene glycol monolaurate, determined at 25° C.): >200* mg/g
- TU Solubility ([1]; vehicle Rapeseed oil, at 37 C.): 123 mg/g
- TU Solubility ([1]; vehicle Ricinoleic acid, at 37 C.): 244 mg/g
- TU Solubility ([1]; vehicle Safflower oil, at 37 C.): 124 mg/g
- TU Solubility ([1]; vehicle Span 80, at 37 C.): 289 mg/g
- TU Solubility ([1]; vehicle Sunflower oil, at 37 C.): 105 mg/g
- TU Solubility ([1]; vehicle Transcutol HP, at 37 C.): 180 mg/g
- TU Solubility ([1]; vehicle dl-alpha-tocopherol, at 37 C.): 527 mg/g

Structure (SMILES): C[C@]12CC[C@H]3[C@@H](CCC4=CC(=O)CC[C@@]43C)[C@@H]1CC[C@@H]2O [micronized testosterone, testosterone]
- time at desired level of serum testosterone for each peak ([2]; Daggett et al.): about 4 hours
- time of total serum testosterone within the normal range ([2]; Føgh et al.): greater than 12 hours

Structure (SMILES): CC[C@H](CC[C@@H](C)[C@H]1CC[C@H]2[C@@H]3CC=C4C[C@@H](O)CC[C@]4(C)[C@H]3CC[C@]12C)C(C)C [β-sitosterol]
- reduction of absorption of cholesterol [3]: 42%
